Measured values from ChEMBL document CHEMBL5441451, “ASAP - In vitro cytotoxicity” (2024).
“And” between values parts separate entries of the source, which are not always exact repeats. Identical values can stand only once.

Key:
[1] = (§1) Functional metabolic assay to measure dose dependent changes in cell viability from drug treatment in HeLa-ACE2 cells. Hela-ACE2 cells are seeded prior to drug treatment, then incubated in MTT (3-[4,5-dimethylthiazol-2-yl]-2,5- diphenyltetrazolium bromide) labelling reagent and SDS. Absorbance is measured at 560 and 750 nm and analyzed by Gen5 software. The assay has been performed by Icahn School of Medicine at Mount Sinai.; assay type: toxicity, cell-based; details: human
[2] = as §1, with “iPSC-Pneumocyte” for “HeLa-ACE2”, “The” for “Hela-ACE2”, “seeded” for “seeded prior to drug treatment,”, “labeling” for “labelling”; assay type: toxicity, cell-based; details: human; for CC50: iPSC-Pneumocyte cells; for CC10: pneumocyte
[3] = Functional metabolic assay to measure dose dependent changes in cell viability from drug treatment in Vero E6/TMPRSS2 cells (cotreated with P-gp inhibitor, Elacridar). Cells are treated with antiviral candidates that have been serially diluted. Cytotoxicity is reported via measuring absorbance and analysis of MTT/MTS assays in uninfected cells. The assay has been performed by Icahn School of Medicine at Mount Sinai.; assay type: toxicity, cell-based, VeroE6/TMPRSS2; details: chlorocebus sabaeus; for CC50: Vero E6/TMPRSS2 cells, with Elacridar (P-gp inhibitor), concentration not stated; for CC10: veroe6/tmprss2

Compound	CC50 ([1]; HeLa-ACE2 cells) [µM]	CC10 ([1]; hela-ace2)	CC50 [2] [µM]	CC10 [2] [µM]	CC50 ([1]; hela-ace2) [µM]	CC50 [3] [µM]	CC10 [3] [µM]
C[C@@H](C(=O)O)[C@H](NC(=O)c1ncnc2[nH]ccc12)c1ccc(Br)cc1	> 20	> 20 µM					
CC(C)[C@@H](Nc1ncnc2[nH]c(-c3cnn(C)c3)cc12)c1ccc2c(c1)S(=O)(=O)NCC2	> 20	> 20 µM					
CC(C)[C@@H](Nc1ncnc2[nH]ccc12)c1ccc2c(c1)S(=O)(=O)CCO2	> 20	> 20 µM					
Cc1nn(C)cc1-c1cc2c(N[C@@H](c3ccc4c(c3)S(=O)(=O)CCC4)C(C)C)ncnc2[nH]1	> 20	> 20 µM					
CC(C)[C@@H](Nc1ncnc2[nH]c(-c3cnn(C)c3C#N)cc12)c1ccc2c(c1)S(=O)(=O)CCC2	> 20	> 20 µM	> 50	> 50			
CC(C)[C@@H](Nc1ncnc2[nH]c(-c3cnn(C)c3C#N)cc12)c1ccc2c(n1)OCCO2		> 50 µM and > 20 µM	6.02	5.176	> 50	> 5	> 5
Cc1ncc(-c2cc3c(N[C@@H](c4ccc5c(c4)OCCO5)C(C)C)ncnc3[nH]2)cn1	> 20	> 20 µM	> 50	> 50			
COc1ccc([C@H](Cc2nnn[nH]2)NC(=O)c2ncnc3[nH]ccc23)cc1	> 20	> 20 µM				> 5	> 5
Cn1ncc(-c2cc3c(N[C@@H](c4ccc5c(n4)OCCO5)C(C)(C)C)ncnc3[nH]2)c1C#N	> 10	> 10 µM and > 20 µM			> 20		
CCNC(=O)c1cc2c(N[C@@H](c3ccc4c(c3)S(=O)(=O)NCC4)C(C)C)ncnc2[nH]1	> 20	> 20 µM					
CNC(=O)Cn1cc(-c2cc3c(N[C@@H](c4ccc5c(c4)S(=O)(=O)CCC5)C(C)C)ncnc3[nH]2)cn1	> 20	> 20 µM	1.7	1.528		> 5	> 5
CC(C)[C@@H](Nc1ncnc2[nH]c(-c3cncc(S(C)(=O)=O)c3)cc12)c1ccc2c(c1)S(=O)(=O)CCC2	> 20	> 20 µM					
CC(C)[C@@H](Nc1ncnc2[nH]c(C(=O)N[C@@H]3CCN(C)C3)cc12)c1ccc2c(c1)S(=O)(=O)CCC2	> 20	> 20 µM	< 0.206	< 0.206		> 5	> 5
CC(C)[C@@H](Nc1ncnc2[nH]c(-c3cnn(C)n3)cc12)c1ccc2c(c1)OCCO2	> 20	> 20 µM	< 0.206	< 0.206			
CC(C)[C@H](Nc1ncnc2[nH]c(-c3cnn(CC(N)=O)c3)cc12)c1ccc2c(c1)S(=O)(=O)CCC2	> 20	> 20 µM	> 50	> 50			
CCNC(=O)c1cc2c(N[C@@H](c3ccc4c(c3)S(=O)(=O)CCO4)C(C)C)ncnc2[nH]1	> 20	> 20 µM					
CNC(=O)c1cc2c(N[C@@H](c3ccc4c(c3)OCCO4)C(C)C)ncnc2[nH]1	> 50	> 50 µM	> 50	> 50			
CC(C)[C@@H](Nc1ncnc2[nH]c(-c3cnn(CC(=O)N(C)C)c3)cc12)c1ccc2c(c1)S(=O)(=O)CCC2	> 20	> 20 µM					
CC(C)(C)[C@@H](Nc1ncnc2[nH]c(-c3cnn(CC(N)=O)c3)cc12)c1ccc2c(n1)OCCO2	> 20	> 20 µM	> 50	> 50			
CC(C)[C@@H](Nc1ncnc2[nH]c(-c3cnn(C)c3)cc12)c1ccc2c(c1)S(=O)(=O)CCC2	> 20	> 20 µM	> 50	> 50			
CC(C)[C@H](Nc1ncnc2[nH]c(-c3cnn(C)c3C#N)cc12)c1ccc2c(n1)NC(=O)CO2	> 20	> 20 µM					
CCNC(=O)c1cc2c(N[C@@H](c3ccc4c(c3)S(=O)(=O)CCC4)C(C)C)ncnc2[nH]1	> 20	> 20 µM					
Cc1nn(C)cc1-c1cc2c(N[C@H](c3ccc4c(c3)S(=O)(=O)CCC4)C(C)C)ncnc2[nH]1	> 20	> 20 µM				> 5	> 5
CC(C)[C@H](Nc1ncnc2[nH]c(-c3cnn(C)c3)cc12)c1ccc2c(c1)S(=O)(=O)CCC2	> 20	> 20 µM					
CC(C)(C)[C@H](Nc1ncnc2[nH]c(-c3cnn(CC(N)=O)c3)cc12)c1ccc2c(c1)OCCO2	> 20	> 20 µM					
CC(C)[C@@H](Nc1ncnc2[nH]c(-c3cnn(CC(N)=O)c3)cc12)c1ccc2c(c1)OCCO2	> 50	> 50 µM	> 50	> 50			
CCNC(=O)c1cc2c(N[C@@H](c3ccc4c(c3)OCCO4)C(C)C)ncnc2[nH]1			< 0.206	1.29			
